{"source": "patent US20220202841A1", "about": "“DERMATOLOGICAL FORMULATIONS FOR TREATMENT OF DERMATITIS” (priority 2020, published 2022)", "test_system": "moderate to severe papular pustular rosacea with perioral dermatitis", "assay": "Treatment of a subject with the formulation, clinical examination after 1 month", "assay_type": "in vivo, human", "details": "same subject, treatment history before the formulation, as reported at first visit", "from_the_text": "The lesions consisted of papules and pimples, was severe in severity, and had been present for months. […] The subject was having a bad “acne” flare up, and stated that their face was itchy and red. The subject had been treated for “acne” for a long time.\nThe subject was diagnosed with moderate to severe papular pustular rosacea with perioral dermatitis.\nThe subject was given the formulation of Example 1, and the subject administered it twice daily (AM and PM) and was seen again 1 month later, at which time their condition had improved. The subject's condition at this later examination was recorded in the images in FIGS. 2A to 2C.", "data": [{"compound": "CC1=C(/C=C/C(C)=C/C=C/C(C)=C/C(=O)O)C(C)(C)CCC1", "note": "[tretinoin]", "values": [{"measurement": "improvement of \"acne\" lesions with previously tried treatment", "result": "no improvement"}]}]}
